# From US8609892B2 (Eli Lilly and Company, priority 2004, dated 2013)
# Biological target: cloned human glucagon receptor (Homo sapiens (Human), UniProt P47871)
# Test: Glucagon Receptor (hGlucR) Binding Assay
# Conditions: I-125 glucagon competition, SPA, 293HEK membranes, Cheng-Prusoff
# Description: This plasmid DNA was transfected into 293 HEK cells and selected with 200 ug/mL Hygromycin.
# Crude plasma membranes are prepared using cells from suspension culture. The cells are lysed on ice in hypotonic buffer containing 25 mM Tris HCL, pH 7.5, 1 mM MgCl2, DNAse1, 20 u/mL, and Roche Complete Inhibitors-without EDTA. The cell suspension is homogenized with a glass dounce homogenizer using a Teflon pestle for 25 strokes. The homogenate is centrifuged at 4 degrees C. at 1800×g for 15 mins. The supernate is collected and the pellet is resuspended in hypotonic buffer and rehomogenized. The mixture is centrifuged at 1800×g for 15 mins. The second supernate is combined with the first supernate. The combined supernates are recentrifuged at 1800×g for 15 mins to clarify. The clarified supernate is transferred to high speed tubes and centrifuged at 25000×g for 30 minutes at 4 degrees C. The membrane pellet is resuspended in homogenization buffer and stored as frozen aliquots at −80 degree C. freezer until needed.
# The specific activity is 2200 Ci/mmol.
# The binding buffer contains 25 mM Hepes, pH 7.4, 2.5 mM CaCl2, 1 mM MgCl2, 0.1% fatty acid free BSA, (ICN), 0.003% tween-20, and Roche Complete Inhibitors without EDTA. […] Test compounds are dissolved in DMSO and serially diluted in DMSO. […] Plates are read with a MicroBeta after 14 hours of settling time at room temp. […]
# Sequence of cloned human glucagon receptor (P47871 26-477): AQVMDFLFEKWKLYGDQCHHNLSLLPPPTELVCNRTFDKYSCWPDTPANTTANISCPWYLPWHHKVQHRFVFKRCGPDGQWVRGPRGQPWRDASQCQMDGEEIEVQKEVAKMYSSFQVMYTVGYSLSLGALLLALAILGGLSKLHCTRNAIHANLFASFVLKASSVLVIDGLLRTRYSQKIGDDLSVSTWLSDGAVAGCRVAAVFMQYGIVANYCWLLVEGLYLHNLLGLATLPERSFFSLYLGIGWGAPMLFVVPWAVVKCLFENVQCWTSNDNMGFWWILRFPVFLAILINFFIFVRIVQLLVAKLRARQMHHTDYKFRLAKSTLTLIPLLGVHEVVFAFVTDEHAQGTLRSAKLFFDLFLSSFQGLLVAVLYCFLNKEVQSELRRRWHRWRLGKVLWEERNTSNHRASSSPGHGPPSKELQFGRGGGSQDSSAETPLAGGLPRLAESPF
smiles,measurement,value
Cc1ccc(-c2ccc(SC(CC(C)C)c3ccc(C(=O)NCCC(=O)O)cc3)cc2)cc1C (centres unmarked),Ki,265 nM
CCCC(Oc1ccc(-c2ccc(CC(C)C)cc2)nc1)c1ccc(C(=O)NCCC(=O)O)cc1 (centres unmarked),Ki,254 nM
